Results published in patent publication US9204653B2, “5-fluoro pyrimidine derivatives” (DOW AGROSCIENCES LLC, priority 2008, dated 2015).
Where two headings read alike, the source gives them in different places.

Test system: Mycosphaerella graminicola; Anamorph: Septoria tritici; Bayer Code SEPTTR
Test: Leaf blotch of wheat, foliar fungicide treatment, one day protectant (1DP) or three day curative (3DC)
Assay type: in vivo, Septoria tritici on wheat plants (variety Yuma)
Settings: Zymoseptoria tritici, rating of percent disease control
[1] = 24 h, one day protectant, read-out: SETTTR 1DP 25 ppm
[2] = 24 h, one day protectant, read-out: SEPTTR 1DP 100 ppm
[3] = 72 h, three day curative, read-out: SEPTTR 3DC 25 ppm
[4] = 72 h, three day curative, read-out: SEPTTR 3DC 100 ppm

Row | Compound | pest or weed control at 25 ppm [1] | pest or weed control at 100 ppm [2] | pest or weed control at 25 ppm [3] | pest or weed control at 100 ppm [4]
1 | CC(Oc1ncc(F)c(N)n1)c1cccc([N+](=O)[O-])c1 (stereo not drawn) [Compound 576] | 26 to 50% | 76 to 100% | 26 to 50% | 76 to 100%
2 | Cc1csc(COc2ncc(F)c(N)n2)c1 [Compound 577] | 76 to 100% | 76 to 100% | 76 to 100% | 76 to 100%
3 | Nc1nc(OCc2cc3cccnc3s2)ncc1F [Compound 578] | 76 to 100% | 76 to 100% | 76 to 100% | 76 to 100%
4 | Nc1nc(OCc2cccnc2Cl)ncc1F [Compound 580] | 51 to 75% | 76 to 100% | 0 to 25% | 51 to 75%
5 | COc1cc(COc2ncc(F)c(N)n2)ccc1F [Compound 581] | 76 to 100% | 76 to 100% | 76 to 100% | 76 to 100%
6 | Nc1nc(OCCNc2ccccc2)ncc1F [Compound 583] | 0 to 25% | 76 to 100% | 76 to 100% | 76 to 100%
7 | CN(C)/C=N/c1nc(OC(=O)c2ccc(Cl)cc2)ncc1F [Compound 585] | 76 to 100% | 76 to 100% | 76 to 100% | 76 to 100%
8 | COc1cccc(COc2ncc(F)c(N3CCOCC3)n2)c1 [Compound 586] | 0 to 25% | 0 to 25% | 0 to 25% | 0 to 25%
9 | O=C(Nc1ccsc1)Nc1nc(OCc2ccc(F)cc2)ncc1F [Compound 587] | 0 to 25% | 0 to 25% | 26 to 50% | 76 to 100%
10 | CNc1nc(OCc2ccc(OC)c(OC)c2)ncc1F [Compound 589] | 0 to 25% | 0 to 25% | 0 to 25% | 0 to 25%
11 | COc1ccc(COc2ncc(F)c(N)n2)cc1F [Compound 590] | 76 to 100% | 76 to 100% | 76 to 100% | 76 to 100%
12 | Cc1cc(C)cc(C(C)Oc2ncc(F)c(N)n2)c1 (stereo not drawn) [Compound 592] | 76 to 100% | 76 to 100% | 76 to 100% | 76 to 100%
13 | COc1cccc(COc2ncc(F)c(NOCc3ccccc3)n2)c1 [Compound 594] | 0 to 25% | 51 to 75% | 0 to 25% | 26 to 50%
14 | Cn1ccc(COc2ncc(F)c(NC(=S)NCc3ccccc3F)n2)n1 [Compound 595] | 26 to 50% | 76 to 100% | 0 to 25% | 0 to 25%
15 | Nc1nc(OCc2ccc(OC(F)(F)F)cc2)ncc1F [Compound 596] | 76 to 100% | 76 to 100% | 76 to 100% | 76 to 100%
16 | Cc1cc(C(C)Oc2ncc(F)c(N)n2)ccc1Cl (stereo not drawn) [Compound 597] | 76 to 100% | 76 to 100% | 76 to 100% | 76 to 100%
17 | CC[Si](CC)(CC)Nc1nc(OCc2cccc(C#N)c2)ncc1F [Compound 599] | 51 to 75% | 76 to 100% | 76 to 100% | 76 to 100%
18 | CCOCNc1nc(OCc2cccc(OC)c2)ncc1F [Compound 601] | 76 to 100% | 76 to 100% | 76 to 100% | 76 to 100%
19 | Cc1cccc(COc2ncc(F)c(N)n2)c1C [Compound 602] | 0 to 25% | 51 to 75% | 0 to 25% | 0 to 25%
20 | COc1cccc(COc2ncc(F)c(N/N=C/c3nc(C)cs3)n2)c1 [Compound 603] | 26 to 50% | 76 to 100% | 0 to 25% | 0 to 25%
21 | Nc1nc(OCc2ccccc2Br)ncc1F [Compound 604] | 76 to 100% | 76 to 100% | 76 to 100% | 76 to 100%
22 | CC[Si](CC)(CC)Nc1nc(Oc2ccc(OC)cc2)ncc1F [Compound 605] | 51 to 75% | 76 to 100% | 0 to 25% | 76 to 100%
23 | CC(Oc1ncc(F)c(N)n1)c1ccc(Cl)c(Cl)c1Cl (stereo not drawn) [Compound 607] | 0 to 25% | 0 to 25% | 0 to 25% | 26 to 50%

Row | Compound | pest or weed control at 25 ppm [1] | pest or weed control at 100 ppm [2] | pest or weed control at 25 ppm [3] | pest or weed control at 100 ppm [4]
24 | COc1cccc(COc2ncc(F)c(N(C)N)n2)c1 [Compound 608] | 51 to 75% | 76 to 100% | 51 to 75% | 76 to 100%
25 | COc1cccc(COc2ncc(F)c(N)n2)c1OC [Compound 609] | 76 to 100% | 76 to 100% | 76 to 100% | 76 to 100%
26 | Cc1ccc(OC(=O)Oc2ncc(F)c(/N=C/N(C)C)n2)cc1 [Compound 610] | 76 to 100% | 76 to 100% | 26 to 50% | 51 to 75%
27 | Nc1nc(OS(=O)(=O)c2ccc(Cl)cc2)ncc1F [Compound 611] | 76 to 100% | 76 to 100% | 76 to 100% | 76 to 100%
28 | N#Cc1cccc(COc2ncc(F)c(NSc3ccccc3[N+](=O)[O-])n2)c1 [Compound 612] | 76 to 100% | 76 to 100% | 76 to 100% | 76 to 100%
29 | Cc1ccc(COc2ncc(F)c(NC(=O)OCc3ccccc3)n2)cc1 [Compound 613] | 76 to 100% | 76 to 100% | 76 to 100% | 76 to 100%
30 | CC(C)OCNc1nc(OCc2ccc(F)cc2)ncc1F [Compound 614] | 76 to 100% | 76 to 100% | 76 to 100% | 76 to 100%
31 | CC(=O)Nc1nc(O/N=C(\C)c2ccccc2)ncc1F [Compound 616] | 76 to 100% | 76 to 100% | 76 to 100% | 76 to 100%
32 | Cc1ccc(C(C)C)cc1C(C)Oc1ncc(F)c(N)n1 (stereo not drawn) [Compound 617] | 76 to 100% | 76 to 100% | 76 to 100% | 76 to 100%
33 | COc1cc(COc2ncc(F)c(N)n2)cc(OC)c1 [Compound 623] | 76 to 100% | 76 to 100% | 51 to 75% | 76 to 100%
34 | CC(=O)Nc1nc(OCCc2ccc(Cl)cc2)ncc1F [Compound 624] | 51 to 75% | 76 to 100% | 51 to 75% | 76 to 100%
35 | CSCCOc1ncc(F)c(N)n1 [Compound 625] | 0 to 25% | 26 to 50% | 0 to 25% | 26 to 50%
36 | Nc1nc(OCc2nccs2)ncc1F [Compound 628] | 26 to 50% | 76 to 100% | 51 to 75% | 76 to 100%
37 | Nc1nc(OCc2ccc(SC(F)(F)F)cc2)ncc1F [Compound 632] | 76 to 100% | 76 to 100% | 76 to 100% | 76 to 100%
38 | CCOC(=O)Nc1nc(OCc2cccc(F)c2)ncc1F [Compound 633] | 76 to 100% | 76 to 100% | 76 to 100% | 76 to 100%
39 | CN(C)/C=N/c1nc(OC(=O)OCC(Cl)(Cl)Cl)ncc1F [Compound 634] | 76 to 100% | 76 to 100% | 76 to 100% | 76 to 100%
40 | COc1ccc(C(=O)Oc2ncc(F)c(/N=C/N(C)C)n2)cc1 [Compound 636] | 76 to 100% | 76 to 100% | 76 to 100% | 76 to 100%
41 | Nc1nc(OCc2ccc(CO)cc2)ncc1F [Compound 637] | 76 to 100% | 76 to 100% | 76 to 100% | 76 to 100%
42 | COc1cccc(COc2ncc(F)c(NCOCc3ccccc3)n2)c1 [Compound 638] | 51 to 75% | 76 to 100% | 0 to 25% | 51 to 75%
43 | COc1cccc(COc2ncc(F)c(NC(=S)Nc3ccccc3F)n2)c1 [Compound 639] | 76 to 100% | 76 to 100% | 51 to 75% | 76 to 100%
44 | N#C/C(=N\Oc1ncc(F)c(N)n1)c1ccccc1 [Compound 640] | 76 to 100% | 76 to 100% | 76 to 100% | 76 to 100%
45 | Cc1ccccc1C(C)Oc1ncc(F)c(/N=C/N(C)C)n1 (stereo not drawn) [Compound 643] | 76 to 100% | 76 to 100% | 76 to 100% | 76 to 100%
